{"source": "patent EP3922250A1", "about": "“COMPOSITION FOR CORRECTING THE BEHAVIOUR OF CATS AND DOGS” (priority 2019, dated 2021)", "key": {"[1]": {"conditions": "in vivo; cited from earlier work"}, "domestic cats": {"system": "domestic cats", "conditions": "48 to 50 mg per capita (averaging 10 to 14 mg/kg), one hour after administration", "quoted_text": "Based on the data obtained by observing animals under stress, the most frequent symptoms of anxiety and fear common to various stressful situations were selected to assess the severity of their abnormal behavior. They included vocalizing, hypersalivation, overgrooming, abnormal (higher or lower) motion activity, soiling (urination and/or defecation), and 'destructive behavior' consisting in signs of aggression, attempts at damaging ambient objects, etc. For each symptom (based on its severity), points from 0 to 2 were given, which subsequently were totalized individually for each animal or, where appropriate, for a whole group of animals to determine an average value.\nFor each of the 6 symptoms (based on its severity), points from 0 to 2 were given, which subsequently were totalized individually for each animal. Therein, a total score of more than 6 points (out of possible 12) was considered to be indicative of an apparent severity of abnormal (changed) behavior.\nTo carry out the experiment, 6 domestic cats of different sex and age, weighing 3.5 to 5 kg, were selected, who, according to their owners, felt bad during transportation, showing various forms of abnormal behavior. Herein, the actual presence of stress symptoms and their severity for each cat were assessed from video data provided by their owners. […]"}, "White Rats": {"system": "White Rats", "experiment": "Acute oral toxicity testing, intragastric administration (Miller and Tainter)", "conditions": "for % of deaths / Number of Animals dead: 10 per group, 14 days follow-up", "method": "(§1) This parameter was evaluated on mice and rats in accordance with a conventional procedure for acute toxicity testing of medicinal products (Example 2).\n(§2) In each case, 7 experimental groups and 1 control group of white rats and 7 experimental and 1 control groups of white mice, 10 individuals in each, were formed. The product was administered via an intragastric tube in accordance with the design described in Table I. 1% starch gel was used as the suspending agent.\n(§3) Follow-up period was 14 days. The observation included general condition, behavior, feed and water intake, manifestation of intoxication symptoms, possible deaths."}, "female cats": {"system": "female cats", "experiment": "Suppression of behavioral signs of heat in female cats"}, "male cats": {"system": "male cats", "from_the_text": "The trials enrolled apparently healthy entire animals (8 male cats and 8 female cats) aged 2 to 6 years, weighing 3 to 4 kg, kept in foster care at BIM Animal Shelter. The females were introduced into the study as they went into estrus. Table XII. Registration details of the cats enrolled in the experiment\nMale cats with pronounced signs of heat were placed in individual cages in a dedicated room where 2 female cats in heat were present (in separate cages in the same room). TR Succinate in the tablet form (for the experimental animals) and placebo tablets (for the control animals) were given in accordance with the same design as in the experiment with female cats. Follow-up observation over the animals was carried out in a similar manner."}, "White Mice": {"system": "White Mice", "experiment": "Acute oral toxicity testing, intragastric administration (Miller and Tainter)", "conditions": "for % of deaths / Number of Animals dead: 10 per group, 14 days follow-up", "method": "as §1, §2, §3"}, "[2]": {"conditions": "substance, intragastric, in 1% starch gel"}, "[3]": {"conditions": "substance, intragastric, in 1% starch gel, 20160 min"}, "[4]": {"conditions": "female and male cats in heat, single dose 6-8 mg/kg"}, "[5]": {"conditions": "one 100 mg tablet (24 mg active ingredient, 6-8 mg/kg) oral, individual female cats"}, "[6]": {"conditions": "one 100 mg tablet (24 mg active ingredient, 6-8 mg/kg) oral, individual male cats"}}, "note": "Several values for one entry are separate records, joined by “and”; a condition that tells them apart may be missing. Equal entries are not always repeated. Structures can show the parent of a compound that is named as a salt."}
{"compound": "O=c1n(CCCN2CCN(c3cccc(Cl)c3)CC2)nc2ccccn12", "note": "[TR, Trazodone]", "values": [{"measurement": "amount of plasma protein binding", "setting": "[1]", "value": "89-95%"}, {"measurement": "excreted from the body via the kidneys", "setting": "[1]", "value": 75, "unit": "%"}, {"measurement": "excreted unchanged with bile", "setting": "[1]", "value": "about 20%"}, {"measurement": "time to reach complete excretion of the substance", "setting": "[1]", "value": 98, "unit": "h"}]}
{"compound": "O=c1n(CCCN2CCN(c3cccc(Cl)c3)CC2)nc2ccccn12", "note": "[Trazodone Hydrochloride, reference compound]", "values": [{"measurement": "sedative action onto the animals", "setting": "domestic cats", "value": "pronounced sedative actions of comparable efficacy"}]}
{"compound": "Trazodone Succinate", "values": [{"measurement": "% of deaths", "setting": "White Rats; 400 mg/kg intragastric", "value": 0, "unit": "%"}, {"measurement": "Number of Animals dead", "setting": "White Rats; 400 mg/kg intragastric", "value": 0}, {"measurement": "% of deaths", "setting": "White Rats; 800 mg/kg intragastric", "value": 20.0, "unit": "%"}, {"measurement": "Number of Animals dead", "setting": "White Rats; 800 mg/kg intragastric", "value": 2}, {"measurement": "% of deaths", "setting": "White Rats; 1600 mg/kg intragastric", "value": 40.0, "unit": "%"}, {"measurement": "Number of Animals dead", "setting": "White Rats; 1600 mg/kg intragastric", "value": 4}, {"measurement": "% of deaths", "setting": "White Rats; 2700 mg/kg intragastric", "value": 70.0, "unit": "%"}, {"measurement": "Number of Animals dead", "setting": "White Rats; 2700 mg/kg intragastric", "value": 7}, {"measurement": "% of deaths", "setting": "White Rats; 3000 mg/kg intragastric", "value": 100.0, "unit": "%"}, {"measurement": "Number of Animals dead", "setting": "White Rats; 3000 mg/kg intragastric", "value": 10}, {"measurement": "% of deaths", "setting": "White Rats; 3500 mg/kg intragastric", "value": 100.0, "unit": "%"}, {"measurement": "Number of Animals dead", "setting": "White Rats; 3500 mg/kg intragastric", "value": 10}, {"measurement": "LD16", "setting": "White Rats; [2]", "value": 760, "unit": "mg/kg"}, {"measurement": "LD84", "setting": "White Rats; [2]", "value": 2730, "unit": "mg/kg"}, {"measurement": "LD100", "setting": "White Rats; [2]", "value": 2945, "unit": "mg/kg"}, {"measurement": "LD50", "setting": "White Rats; [3]", "value": "2300 (2079.5-2520.5) mg/kg"}, {"measurement": "MTD", "setting": "White Rats; [3]", "value": 400, "unit": "mg/kg"}, {"measurement": "side effects, such as pronounced hypnotic action, atony, slowness or dystaxia", "setting": "female cats; experimental group female cats, during the experiment", "value": "No side effects"}, {"measurement": "start of the sedative action after the product administration", "setting": "female cats; [4]", "value": 30, "unit": "min"}, {"measurement": "time the sedative action remained", "setting": "female cats; [4]", "value": "at least 6 hours"}, {"measurement": "time to maximum sedative action (substantially complete disappearance of estrous behavior signs)", "setting": "female cats; [4]", "value": 1, "unit": "h"}, {"measurement": "Total intensity of heat signs after the product administration (points) after 30 minutes", "setting": "female cats; [5]", "value": "5 points (3×) and 6 points and 4 points (2×)"}, {"measurement": "Total intensity of heat signs after the product administration (points) after 1 hour", "setting": "female cats; [5]", "value": "0 points (4×) and 1 points (2×)"}, {"measurement": "Total intensity of heat signs after the product administration (points) after 3 hours", "setting": "female cats; [5]", "value": "1 points (5×) and 2 points"}, {"measurement": "Total intensity of heat signs after the product administration (points) after 6 hours", "setting": "female cats; [5]", "value": "2 points (4×) and 1 points (2×)"}, {"measurement": "Total intensity of heat signs after the product administration (points) after 8 hours", "setting": "female cats; [5]", "value": "4 points (2×) and 1 points (3×) and 5 points"}, {"measurement": "abnormal behaviors", "setting": "male cats; in vivo", "value": "no abnormal behaviors were observed"}, {"measurement": "Total intensity of heat signs after the product administration (points) after 30 minutes", "setting": "male cats; [6]", "value": "5 points (3×) and 6 points and 4 points (2×)"}, {"measurement": "Total intensity of heat signs after the product administration (points) after 3 hours", "setting": "male cats; [6]", "value": "1 points (4×) and 2 points (2×)"}, {"measurement": "Total intensity of heat signs after the product administration (points) after 6 hours", "setting": "male cats; [6]", "value": "2 points (4×) and 1 points (2×)"}, {"measurement": "sedative action onto the animals", "setting": "domestic cats", "value": "pronounced sedative actions of comparable efficacy"}, {"measurement": "% of deaths", "setting": "White Mice; 400 mg/kg intragastric", "value": 0, "unit": "%"}, {"measurement": "Number of Animals dead", "setting": "White Mice; 400 mg/kg intragastric", "value": 0}, {"measurement": "% of deaths", "setting": "White Mice; 800 mg/kg intragastric", "value": 10.0, "unit": "%"}, {"measurement": "Number of Animals dead", "setting": "White Mice; 800 mg/kg intragastric", "value": 1}, {"measurement": "% of deaths", "setting": "White Mice; 1600 mg/kg intragastric", "value": 70.0, "unit": "%"}, {"measurement": "Number of Animals dead", "setting": "White Mice; 1600 mg/kg intragastric", "value": 7}, {"measurement": "% of deaths", "setting": "White Mice; 2000 mg/kg intragastric", "value": 100.0, "unit": "%"}, {"measurement": "Number of Animals dead", "setting": "White Mice; 2000 mg/kg intragastric", "value": 10}, {"measurement": "% of deaths", "setting": "White Mice; 2500 mg/kg intragastric", "value": 100.0, "unit": "%"}, {"measurement": "Number of Animals dead", "setting": "White Mice; 2500 mg/kg intragastric", "value": 10}, {"measurement": "% of deaths", "setting": "White Mice; 3000 mg/kg intragastric", "value": 100.0, "unit": "%"}, {"measurement": "Number of Animals dead", "setting": "White Mice; 3000 mg/kg intragastric", "value": 10}, {"measurement": "Hazard class according to GOST 12.1.007-76", "setting": "White Mice; classified from the LD50 values in mice and rats", "value": "Hazard Class III"}, {"measurement": "LD16", "setting": "White Mice; [2]", "value": 840, "unit": "mg/kg"}, {"measurement": "LD84", "setting": "White Mice; [2]", "value": 1690, "unit": "mg/kg"}, {"measurement": "LD100", "setting": "White Mice; [2]", "value": 1935, "unit": "mg/kg"}, {"measurement": "LD50", "setting": "White Mice; [3]", "value": "1200 (1091.6-1308.4) mg/kg"}, {"measurement": "MTD", "setting": "White Mice; [3]", "value": 400, "unit": "mg/kg"}]}
